Data on 19 compounds can be found in patent USRE47739E1, “2-(pyridin-2-ylamino)-pyrido[2,3-D]pyrimidin-7-ones” (Warner-Lambert Company LLC, priority 2002, dated 2019).

One series deals with Cdk4/Cyclin D (Homo sapiens, UniProt P11802). In words: Assay for Inhibition of Cdk4/Cyclin D. The series is classed as biochemical. Conditions: 25 μM ATP, retinoblastoma protein substrate, 25° C., 15 minutes. On the procedure:
(§1) The assays were carried out as described below.
Assay for Inhibition of Cdk4/Cyclin D
The Cdk4 enzyme assay for IC50 determination and kinetic evaluation is performed as follows. 96-well filter plates (Millipore MADVN6550) are used. […] Buffer A containing excess EDTA was used to determine the level of background ^32P in the absence of enzyme activity. All components except the ATP are added to the wells, and the plate is placed on a plate mixer for 2 minutes. The reaction is started by adding [^32P]ATP, and the plate is incubated at 25° C. for 15 minutes. The reaction is terminated by addition of 0.1 mL 20% trichloroacetic acid (TCA). The plate is kept at 4° C. for at least 1 hour to allow the substrate to precipitate. The wells are then washed five times with 0.2 mL 10% TCA, and ^32P incorporation is determined with a beta plate counter (Wallac Inc., Gaithersburg, Md.).

Another series has as its target Cdk2/Cyclin A (Homo sapiens, UniProt P24941). Kind of series: Assay for Inhibition of Cdk2/Cyclin A. The series is classed as biochemical. To be noted: 12 mM ATP (so in the source), retinoblastoma protein substrate, 25° C., 15 minutes. The protocol:
as §1
Assay for Inhibition of Cdk2/Cyclin A
Cdk2 enzyme assays for IC50 determinations and kinetic evaluation are performed as follows. 96-well filter plates (Millipore MADVN6550) are used. […] All components except the ATP are added to the wells, and the plate is placed on a plate mixer for 2 minutes. The reaction is initiated by addition of [^32P]ATP, and the plate is incubated at 25° C. for 15 minutes. The reaction is terminated by addition of 0.1 mL 20% TCA. The plate is kept at 4° C. for at least 1 hour to allow the substrate to precipitate. The wells are then washed five times with 0.2 mL 10% TCA, and ^32P incorporation is determined with a beta plate counter (Wallac Inc., Gaithersburg, Md.).

Series [1] addresses FGF receptor (FGFr) tyrosine kinase (Homo sapiens, UniProt P11362). In words: Assay for Inhibition of FGFr. The series is classed as biochemical. Conditions: 50 μM ATP, Poly (4:1) glutamate-tyrosine substrate, 25° C. On the procedure:
as §1
Assay for Inhibition of FGFr
For FGF receptor (FGFr) tyrosine kinase assays 96-well plates (100 μL/incubation/well), and conditions are optimized to measure the incorporation of ^32P from [γ^32P]ATP into a glutamate-tyrosine co-polymer substrate. Briefly, to each well is added 82.5 μL incubation buffer B (25 mM Hepes (pH 7.0), 150 mM NaCl, 0.1% Triton X-100, 0.2 mM PMSF, 0.2 mM Na3VO4, 10 mM MnCl2) and 750 μg/mL Poly (4:1) glutamate-tyrosine followed by 2.5 μL of the test compound in buffer B and 5 μL of a 7.5 μg/μL FGFr solution to initiate the reaction. Following a 10-minute incubation at 25° C., […] [γ^32P]ATP (0.4 μCi plus 50 μM ATP) is added to each well, and samples are incubated for an additional 10 minutes at 25° C. The reaction is terminated by the addition of 100 μL 30% trichloroacetic acid (TCA) containing 20 mM sodium pyrophosphate and precipitation of material onto glass fiber mats (Wallac). […] Nonspecific activity is defined as radioactivity retained on the filters following incubation of samples with buffer alone (no enzyme). Specific enzymatic activity (enzyme plus buffer) is defined as total activity minus nonspecific activity.

Another series has as its system neointima formation. Conditions: rats; cited from earlier work.

Structures can show the parent of a compound that is named as a salt.

Chain of FGF receptor (FGFr) tyrosine kinase (P11362 22-822): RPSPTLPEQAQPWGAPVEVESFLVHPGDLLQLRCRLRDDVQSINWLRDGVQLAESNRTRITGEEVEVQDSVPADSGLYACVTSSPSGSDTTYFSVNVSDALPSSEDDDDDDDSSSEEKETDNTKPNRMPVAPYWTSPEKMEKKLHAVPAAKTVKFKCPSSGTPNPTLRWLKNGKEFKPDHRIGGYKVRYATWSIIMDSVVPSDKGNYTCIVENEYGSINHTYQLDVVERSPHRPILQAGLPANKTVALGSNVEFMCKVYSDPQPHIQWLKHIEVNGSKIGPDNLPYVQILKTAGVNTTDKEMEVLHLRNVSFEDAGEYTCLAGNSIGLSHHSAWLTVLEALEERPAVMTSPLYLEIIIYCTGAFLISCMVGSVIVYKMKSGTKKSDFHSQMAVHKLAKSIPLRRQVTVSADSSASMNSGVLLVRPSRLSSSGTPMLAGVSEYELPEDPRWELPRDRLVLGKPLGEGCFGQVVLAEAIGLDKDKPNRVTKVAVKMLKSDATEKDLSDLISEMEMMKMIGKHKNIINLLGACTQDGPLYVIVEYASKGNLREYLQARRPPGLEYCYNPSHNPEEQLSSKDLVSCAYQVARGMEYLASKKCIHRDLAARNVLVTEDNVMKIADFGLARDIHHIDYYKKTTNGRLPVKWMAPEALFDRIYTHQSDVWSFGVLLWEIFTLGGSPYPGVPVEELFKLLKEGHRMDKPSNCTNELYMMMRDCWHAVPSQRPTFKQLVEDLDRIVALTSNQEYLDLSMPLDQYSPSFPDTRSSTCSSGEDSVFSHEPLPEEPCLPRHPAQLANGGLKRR
Chain of Cdk4/Cyclin D (P11802 whole entry, species assumed): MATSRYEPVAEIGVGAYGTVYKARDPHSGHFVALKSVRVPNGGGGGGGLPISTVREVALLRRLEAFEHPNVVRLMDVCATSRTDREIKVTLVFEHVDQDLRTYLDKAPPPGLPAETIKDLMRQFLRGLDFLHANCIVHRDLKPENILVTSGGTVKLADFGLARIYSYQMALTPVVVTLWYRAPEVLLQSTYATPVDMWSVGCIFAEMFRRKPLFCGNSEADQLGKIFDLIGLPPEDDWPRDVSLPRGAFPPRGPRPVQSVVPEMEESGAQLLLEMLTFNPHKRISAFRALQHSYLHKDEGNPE
Chain of Cdk4/Cyclin D (P24385 whole entry partner, species assumed): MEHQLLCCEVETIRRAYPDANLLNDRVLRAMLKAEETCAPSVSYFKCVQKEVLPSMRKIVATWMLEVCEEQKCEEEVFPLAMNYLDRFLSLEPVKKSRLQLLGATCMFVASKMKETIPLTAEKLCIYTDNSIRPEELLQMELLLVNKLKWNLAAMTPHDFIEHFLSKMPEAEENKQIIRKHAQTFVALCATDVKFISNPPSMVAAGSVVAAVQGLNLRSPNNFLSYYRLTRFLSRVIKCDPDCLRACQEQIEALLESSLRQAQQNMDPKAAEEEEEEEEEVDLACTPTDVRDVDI

As a reminder, the IC50 is the concentration that inhibits the measured activity by half. Lower therefore signals greater potency in that assay. Turning to “8-Cyclopentyl-6-methoxymethyl-2-(5-piperazin-1-yl-pyridin-2-ylamino)-8H-pyrido[2,3-d]pyrimidin-7-one [Example 120]”, the IC50 against Cdk4/Cyclin D came out at 0.013 µM; against Cdk2/Cyclin A, 3.8 µM; in series [1], 2.47 µM.

One may read the melting point as the temperature of the solid-liquid transition. Turning to `CC(=O)c1cc2cnc(Nc3ccc(N4CCNCC4)cn3)nc2n(C2CCCC2)c1=O` (as salt: hydrochloride) [Example 33, 6-Acetyl-8-cyclopentyl-2-(5-piperazin-1-yl-pyridin-2-ylamino)-8H-pyrido[2.3-d]pyrimidin-7-one hydrochloride], the melting point is > 300 °C.

Consider `O=c1ccc2cnc(Nc3ccc(N4CCNCC4)cn3)nc2n1C1CCCC1` (as salt: hydrochloride) [Example 59, 8-cyclopentyl-2-(5-piperazin-1-yl-pyridin-2-ylamino)-8H-pyrido[2,3-d]pyrimidin-7-one], for which the melting point lay in the range of 213 to 215 °C.

With `O=c1ccc2cnc(Nc3ccc(N4CCNCC4)cn3)nc2n1C1CCCCC1` (as salt: hydrochloride) [Example 61, 8-cyclohexyl-2-(5-piperazin-1-yl-pyridin-2-ylamino)-8H-pyrido[2,3-d]pyrimidin-7-one], the melting point fell in the range of 228 to 230 °C.

On to `O=c1ccc2cnc(Nc3ccc(N4CCNCC4)cn3)nc2n1C1CC1` (as salt: hydrochloride) [Example 64, 8-cyclopropyl-2-(5-piperazin-1-yl-pyridin-2-ylamino)-8H-pyrido[2,3-d]pyrimidin-7-one], for which the melting point is > 300 °C.

For the compound `COc1ccc(CNc2nc(N(CCO)CCO)nc3c2ncn3C(C)C)cc1` [CVT-313], the “inhibition of neointima formation” value in the series on neointima formation is given as “greater than 80%”.

In the case of `O=c1ccc2cnc(Nc3ccccn3)nc2n1C1CCCC1` [Example 1, 8-Cyclopentyl-2-(pyridin-2-ylamino)-8H-pyrido[2,3-d]pyrimidin-7-one], the values for the IC50 (at Cdk4/Cyclin D; at Cdk2/Cyclin A; in series [1]) were 0.145 µM, 5.01 µM and > 5 µM, respectively.

`O=c1c(Br)cc2cnc(Nc3ccc(N4CCNCC4)cn3)nc2n1C1CCCC1` [Example 3, 6-Bromo-8-cyclopentyl-2-(5-piperazin-1-yl-pyridin-2-ylamino)-8H-pyrido [2,3-d]pyrimidin-7-one hydrochloride]: the IC50 at Cdk4/Cyclin D came out at 0.016 µM; against Cdk2/Cyclin A, 6.05 µM; in series [1] it was 1.03 µM.

On to `Cc1cc2cnc(Nc3ccc(N4CCNCC4)cn3)nc2n(C2CCCC2)c1=O` [Example 20, 8-Cyclopentyl-6-methyl-2-(5-piperazin-1-yl-pyridin-2-ylamino)-8H-pyrido[2,3-d]pyrimidin-7-one hydrochloride], for which the IC50 is 0.027 µM on Cdk4/Cyclin D, 4.05 µM on Cdk2/Cyclin A and 1.6 µM in series [1].

With `O=c1c(Cc2ccccc2)cc2cnc(Nc3ccc(N4CCNCC4)cn3)nc2n1C1CCCC1` [Example 24, 6-Benzyl-8-cyclopentyl-2-(5-piperazin-1-yl-pyridin-2-ylamino)-8H-pyrido[2,3-d]pyrimidin-7-one hydrochloride], the IC50 was 0.005 µM at Cdk4/Cyclin D, > 5 µM against Cdk2/Cyclin A and > 5 µM in series [1].

Take `Cc1c(Br)c(=O)n(C2CCCC2)c2nc(Nc3ccccn3)ncc12` [Example 37, 6-bromo-8-cyclopentyl-5-methyl-2-(pyridin-2-ylamino)-8H-pyrido[2,3-d]pyrimidin-7-one]: the melting point lay in the range of 267 to 268 °C. The IC50 at Cdk4/Cyclin D was > 5 µM. In addition, the IC50 in series [1] is > 5 µM.

Consider `Cc1c(I)c(=O)n(C2CCCC2)c2nc(Nc3ccc(N4CCNCC4)cn3)ncc12` [Example 50, 8-Cyclopentyl-6-iodo-5-methyl-2-(5-piperazin-1-yl-pyridin-2-ylamino)-8H-pyrido[2,3-d]pyrimidin-7-one], for which the melting point is > 240 °C. At Cdk4/Cyclin D, this compound had an IC50 of 0.145 µM. Moreover, at Cdk2/Cyclin A, the IC50 was > 5 µM. In addition, the IC50 in series [1] was > 5 µM.

`COCCN(CCOC)c1ccc(Nc2ncc3c(C)c(Br)c(=O)n(C4CCCC4)c3n2)nc1` [Example 54, 2-{5-[Bis-(2-methoxy-ethyl)-amino]-pyridin-2-ylamino}-6-bromo-8-cyclopentyl-5-methyl-8H-pyrido[2,3-d]pyrimidin-7-one]: the melting point lay in the range of 94 to 95 °C. The IC50 at Cdk4/Cyclin D is 1.1 µM. Also, the IC50 in series [1] was > 5 µM.

In turn, `COCCN(CCOC)c1ccc(Nc2ncc3c(C)c(C(C)=O)c(=O)n(C4CCCC4)c3n2)nc1` [Example 55, 6-Acetyl-2-{5-[bis-(2-methoxy-ethyl)-amino]-pyridin-2-ylamino}-8-cyclopentyl-5-methyl-8H-pyrido[2,3-d]pyrimidin-7-one] yielded a melting point of 138 °C. The IC50 against Cdk4/Cyclin D was found to be 0.024 µM. Besides, the IC50 at Cdk2/Cyclin A was > 5 µM. The IC50 in series [1] was > 5 µM.

Regarding `O=c1ccc2cnc(Nc3ccc(N4CCNCC4)cn3)nc2n1C1CCCC1` [Example 59, 8-cyclopentyl-2-(5-piperazin-1-yl-pyridin-2-ylamino)-8H-pyrido[2,3-d]pyrimidin-7-one], the IC50 against Cdk4/Cyclin D was 0.015 µM; on Cdk2/Cyclin A it was 2.5 µM; in series [1], 1.52 µM.

For the compound `O=c1ccc2cnc(Nc3ccc(N4CCNCC4)cn3)nc2n1C1CCCCC1` [Example 61, 8-cyclohexyl-2-(5-piperazin-1-yl-pyridin-2-ylamino)-8H-pyrido[2,3-d]pyrimidin-7-one], the IC50 on Cdk4/Cyclin D was determined as 0.013 µM; on Cdk2/Cyclin A, 0.835 µM; in series [1], 1.38 µM.

For `Nc1cccc(Nc2ncc3cc(Br)c(=O)n(C4CCCC4)c3n2)n1` [Example 65, 6-Bromo-8-cyclopentyl-2-(pyridin-2,6-yldiamino)-8H-pyrido[2,3-d]pyrimidin-7-one], the melting point was > 300 °C. For the same compound, the IC50 at Cdk4/Cyclin D stood at 0.43 µM. Further, the IC50 on Cdk2/Cyclin A turned out to be 3.3 µM.

For the compound `Cc1c(Br)c(=O)n(C2CCCC2)c2nc(Nc3ccc(N4CCN(C)CC4)cn3)ncc12` [Example 70, 6-Bromo-8-cyclopentyl-5-methyl-2-[5-(4-methyl-piperazin-1-yl)-pyridin-2-ylamino]-8H-pyrido[2,3-d]pyrimidin-7-one], the melting point is 278 to 280 °C (dec.). The compound further came in with an IC50 against Cdk4/Cyclin D of 0.135 µM. Also, the IC50 in series [1] was > 5 µM.

As for `CCOCc1cc2cnc(Nc3ccc(N4CCOCC4)cn3)nc2n(C2CCCC2)c1=O` [Example 125, 8-Cyclopentyl-6-ethoxymethyl-2-(5-morpholin-4-yl-pyridin-2-ylamino)-8H-pyrido[2,3-d]pyrimidin-7-one], the IC50 was 0.018 µM against Cdk4/Cyclin D, > 5 µM on Cdk2/Cyclin A and > 5 µM in series [1].
